Earlier results in patent publication US10576045B2 (priority 2012, dated 2020).

How the values were obtained:
[1] = 60 mg/day
[2] = obese patients with BED; 8 mg/day of reboxetine for 12 days
[3] = reboxetine 4 mg/day coadministered with olanzapine
anticholinergic binding = details: different animal models

SMILES	difference between treatment and placebo groups ([1]; end of the study, week 52)	weight loss compared to placebo ([1]; following 28 weeks of treatment)	binge eating behavior [2]	weight-gain associated with olanzapine administration [3]	serotonin reuptake inhibitory activity (serotonin reuptake)	dopamine reuptake inhibitory activity (dopamine reuptake)	anticholinergic binding activity (anticholinergic binding)	monoamine oxidase (MAO) inhibitory activity (monoamine oxidase (MAO))
CNCCC(Oc1ccc(C(F)(F)F)cc1)c1ccccc1 (racemic) [fluoxetine, (+−)-N-methyl-3-(p-trifluoromethylphenoxy)-3-phenylpropyl-amine]	no difference	statistically significant weight loss						
CCOc1ccccc1O[C@H](c1ccccc1)[C@H]1CNCCO1 (relative stereo) [reboxetine, (R*,R*)-2-[(2-ethoxyphenoxy)-phenyl-methyl]morpholine]			reduced binge eating behavior	reduced the weight-gain	only marginal	no	no anticholinergic binding activity	substantially devoid
